Values quoted from earlier work as cited in patent US8546362B2, “Medicinal cream made using neomycin sulphate, betamethasone valerate, and chitosan, and a process to make the same” (priority 2009, dated 2013).
Where two headings read alike, the source gives them in different places.

Tests used:
Staphylococcus aureus = settings: in vitro
Escherichia coli = settings: in vitro
S. epidermidis = settings: in vitro
[1] = from the peritoneum, draining sinuses, wounds, or surgical sites
[2] = test system: indole-positive and indole-negative Proteus; settings: in vitro
Moraxella lacunata = settings: in vitro
Haemophilus influenzae = settings: in vitro
Serratia = settings: in vitro

SMILES | Solubility (in acetone) | Solubility (in alcohol) | Solubility (in benzene) | Solubility (in chloroform) | Solubility (in ether) | Solubility (in water) | Antibacterial activity (Pseudomonas aeruginosa) | Concentrations that inhibit most susceptible strains (Staphylococcus aureus) | Concentrations that inhibit most susceptible strains (Escherichia coli) | Concentrations that inhibit most susceptible strains (S. epidermidis) | Antibacterial activity (streptococci) | Absorption [1] | Antimicrobial activity (fungi) | Concentrations that inhibit most susceptible strains [2] | Concentrations that inhibit most susceptible strains (Moraxella lacunata) | Antimicrobial activity (most anaerobic bacteria) | Concentrations that inhibit most susceptible strains (Haemophilus influenzae) | Antimicrobial activity (viruses) | Concentrations that inhibit most susceptible strains (Serratia)
CCCCC(=O)O[C@]1(C(=O)CO)[C@@H](C)C[C@H]2[C@@H]3CCC4=CC(=O)C=C[C@]4(C)[C@@]3(F)[C@@H](O)C[C@@]21C [Betamethasone Valerate, 9-Fluoro-11β, 17,21-trihydroxy-16β-methylpregna-1,4-diene-3,20-dione 17-valerate] | freely soluble | soluble | slightly soluble | freely soluble | slightly soluble | practically insoluble | – | – | – | – | – | – | – | – | – | – | – | – | –
NC[C@@H]1O[C@H](O[C@H]2[C@@H](O)[C@H](O[C@@H]3[C@@H](O)[C@H](N)C[C@H](N)[C@H]3O[C@H]3O[C@H](CN)[C@@H](O)[C@H](O)[C@H]3N)O[C@@H]2CO)[C@H](N)[C@@H](O)[C@@H]1O [Neomycin] | – | very slightly soluble | – | – | – | freely soluble | generally resistant | 1 to 12.5 µg/mL | 1 to 12.5 µg/mL | 1 to 12.5 µg/mL | only minimally active | rapidly absorbed | inactive | 1 to 12.5 µg/mL | 1 to 12.5 µg/mL | inactive | 1 to 12.5 µg/mL | inactive | 1 to 12.5 µg/mL
